Assay results as given in patent publication US8299073B2, “P38 MAP kinase inhibitors” (Respivert Ltd., priority 2008, dated 2012).
Read-outs that look alike come from different tables or passages of the source.

What was measured:
[1] = test system: Differentiated U937 cells; experiment: MTT assay (loss of cell viability); format: cell-based, human; settings: for MTT 4 hr / MTT 24 hr: loss of cell viability, 10 ug/ml
Method: Differentiated U937 cells were pre-incubated with compound for 4 hrs in 5% FCS or 10% FCS for 24 hrs and 72 hr. The supernatant was replaced with 200 ul of new media and 10 μL of MTT stock solution (5 mg/mL) added to each well. After 1 hr incubation, the media were removed, 200 μL of DMSO added to each well and the plates were shaken lightly for 1 hr prior to reading the absorbance at 550 nm.
The percentage loss of cell viability was calculated for each well relative to vehicle (0.5% DMSO)-treatment. Consequently an apparent increase in cell viability for drug treatment relative to vehicle is tabulated as a negative percentage.

[2] = biological target: T1, recombinant, phosphorylated p38 MAPK gamma (MAPK12:Millipore) (Homo sapiens, UniProt P53778); experiment: Enzyme inhibition assay (FRET, Z-LYTE), p38 MAPK gamma; format: biochemical; settings: read-out: IC50 values P38γ enzyme
T1 construct: purchased Millipore
T1 sequence (P53778 1-367): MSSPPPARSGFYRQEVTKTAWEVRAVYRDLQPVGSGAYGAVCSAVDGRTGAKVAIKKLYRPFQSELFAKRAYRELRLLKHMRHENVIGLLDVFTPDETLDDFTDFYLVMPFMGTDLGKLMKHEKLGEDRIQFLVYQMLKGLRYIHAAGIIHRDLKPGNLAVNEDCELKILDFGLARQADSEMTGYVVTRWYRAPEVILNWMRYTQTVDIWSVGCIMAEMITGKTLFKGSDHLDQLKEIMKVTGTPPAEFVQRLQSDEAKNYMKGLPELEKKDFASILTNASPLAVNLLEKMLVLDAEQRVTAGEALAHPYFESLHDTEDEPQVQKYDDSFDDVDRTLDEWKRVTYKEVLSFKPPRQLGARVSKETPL
Method: The enzyme inhibitory activity of compound was determined by fluorescence resonance energy transfer (FRET) using synthetic peptides labelled with both donor and acceptor fluorophores (Z-LYTE, Invitrogen). Briefly, recombinant, phosphorylated p38 MAPK gamma (MAPK12:Millipore) was diluted in HEPES buffer, mixed with compound at desired final concentrations and incubated for two hours at room temperature. The FRET peptide (2 μM) and ATP (100 uM) were next added to the enzyme/compound mixture and incubated for one hour. Development reagent (protease) was added for one hour prior to detection in a fluorescence microplate reader. The site-specific protease only cleaves non-phosphorylated peptide and eliminates the FRET signal. Phosphorylation levels of each reaction were calculated using the ratio of coumarin emission (donor) over fluorescein emission (acceptor) with high ratios indicating high phosphorylation and low ratios, low phosphorylation levels.

[3] = test system: LPS-induced TNFα release in differentiated U937 cells; experiment: LPS-induced TNF alpha release in differentiated U937 cells; format: cell-based
Method: U937 cells, human monocytic cell line, were differentiated to macrophage-type cells by incubation with phorbol myristate acetate (PMA; 100 ng/ml) for 48 to 72 hours. Where appropriate, cells were pre-incubated with final concentrations of compound for 2 hrs. Cells were then stimulated with 0.1 μg/mL of LPS (from E. coli: O111:B4, Sigma) for 4 hrs, and the supernatant collected for determination of TNFα concentration by sandwich ELISA (Duo-set, R&D systems).

[4] = test system: LPS-induced TNFα release in THP-1 cells; experiment: LPS-induced TNF alpha release in THP-1 cells; format: cell-based; settings: Homo sapiens
Method: THP-1, human monocytic cell line, was also used for this assay. THP-1 cells were stimulated with 1 μg/ml of LPS (from E. coli: O111:B4, Sigma) for 4 hrs, and the supernatant collected for determination of TNFα concentration.
THP-1 cells, a human monocytic cell line, were stimulated with 1 μg/ml of LPS (from E. coli; O111:B4, Sigma) for 4 hr and the supernatant collected for determination of TNFα concentration by sandwich ELISA (Duo-set, R&D systems). The inhibition of TNFα production was calculated at each concentration by comparison with vehicle control.

[5] = biological target: T2, p38 MAPK alpha (MAPK14: Invitrogen) (Homo sapiens, UniProt Q16539); experiment: Enzyme inhibition assay (FRET, Z-LYTE), p38 MAPK alpha, via activation of MAPKAP-K2; format: biochemical; settings: read-out: IC50 values p38α enzyme
T2 construct: purchased Invitrogen
T2 sequence (Q16539 whole entry): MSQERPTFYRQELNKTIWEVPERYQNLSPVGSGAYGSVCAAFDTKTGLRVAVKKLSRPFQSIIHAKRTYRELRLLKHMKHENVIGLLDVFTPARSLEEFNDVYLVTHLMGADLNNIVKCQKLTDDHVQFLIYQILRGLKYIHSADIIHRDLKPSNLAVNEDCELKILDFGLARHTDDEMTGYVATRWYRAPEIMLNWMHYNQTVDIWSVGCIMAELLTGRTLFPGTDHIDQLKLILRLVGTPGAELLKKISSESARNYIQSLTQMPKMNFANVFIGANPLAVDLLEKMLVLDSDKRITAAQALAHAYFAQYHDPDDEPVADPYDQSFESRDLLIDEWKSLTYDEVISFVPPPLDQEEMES

[6] = Homo sapiens; read-out: R-EC50 values d-U937 cells
[7] = THP-1, LPS-induced TNFα release, read-out: IC50 values THP-1 cells
[8] = Homo sapiens, read-out: R-EC50 values d-U937 cells
[9] = THP-1, read-out: IC50 values THP-1 cells

Structure (SMILES) | Differentiated U937 cells MTT Assay ([1]; 4, 24 h (10 μg/ml)) | MTT 4 hr [1] | MTT 24 hr [1] | IC50 [2] | EC50 [3, 6] | IC50 [4, 7] | IC50 [5] | EC50 [3, 8] | IC50 [4, 9]
COCC(=O)Nc1cc(COc2ccc(NC(=O)Nc3cc(C(C)(C)C)nn3-c3ccc(C)cc3)c3ccccc23)ccn1 [Example 1, N-(4-((4-(3-(3-tert-Butyl-1-p-tolyl-1H-pyrazol-5-yl)ureido)naphthalen-1-yloxy)methyl)pyridin-2-yl)-2-methoxyacetamide] | Negative^2 | − (− <30%) | − (− <30%) |  |  |  |  |  | 
CNC(=O)Nc1cc(COc2ccc(NC(=O)Nc3cc(C(C)(C)C)nn3-c3ccc(C)cc3)c3ccccc23)ccn1 [Example 2, Methyl 4-((4-(3-(3-tert-butyl-1-p-tolyl-1H-pyrazol-5-yl)ureido)naphthalen-1-yloxy)methyl)pyridin-2-ylurea] |  | − (− <30%) | − (− <30%) | < 500 nM | < 500 nM | < 500 nM |  |  | 
Cc1ccc(-n2nc(C(C)(C)C)cc2NC(=O)Nc2ccc(OCc3ccnc(NC(=O)C4CCOCC4)c3)c3ccccc23)cc1 [Example 3, N-(4-((4-(3-(3-tert-Butyl-1-p-tolyl-1H-pyrazol-5-yl)ureido)naphthalen-1-yloxy)methyl)pyridin-2-yl)tetrahydro-2H-pyran-4-carboxamide] |  | − (− <30%) | + (+ >30% at 10 ug/ml) | < 500 nM | < 10 nM | < 10 nM | < 10 nM |  | 
CO[C@@H](C)C(=O)Nc1cc(COc2ccc(NC(=O)Nc3cc(C(C)(C)C)nn3-c3ccc(C)cc3)c3ccccc23)ccn1 [Example 4, (S)-N-(4-((4-(3-(3-tert-Butyl-1-p-tolyl-1H-pyrazol-5-yl)ureido)naphthalen-1-yloxy)methyl)pyridin-2-yl)-2-methoxypropanamide] |  | − (− <30%) | − (− <30%) | < 500 nM | < 10 nM | < 10 nM | < 500 nM |  | 
CO[C@H](C)C(=O)Nc1cc(COc2ccc(NC(=O)Nc3cc(C(C)(C)C)nn3-c3ccc(C)cc3)c3ccccc23)ccn1 [Example 5, (R)-N-(4-((4-(3-(3-tert-Butyl-1-p-tolyl-1H-pyrazol-5-yl)ureido)naphthalen-1-yloxy)methyl)pyridin-2-yl)-2-methoxypropanamide] |  | − (− <30%) | + (+ >30% at 10 ug/ml) | < 5000 nM | < 10 nM | < 10 nM | < 10 nM |  | 
Cc1ccc(-n2nc(C(C)(C)C)cc2NC(=O)Nc2ccc(OCc3ccnc(NC(=O)CO)c3)c3ccccc23)cc1 [Example 7, N-(4-((4-(3-(3-tert-Butyl-1-p-tolyl-1H-pyrazol-5-yl)ureido)naphthalen-1-yloxy)methyl)pyridin-2-yl)-2-hydroxyacetamide] |  | − (− <30%) | + (+ >30% at 10 ug/ml) | < 500 nM | < 10 nM | < 10 nM | < 10 nM |  | 
CNC(C)(C)C(=O)Nc1cc(COc2ccc(NC(=O)Nc3cc(C(C)(C)C)nn3-c3ccc(C)cc3)c3ccccc23)ccn1 [Example 8, N-(4-((4-(3-(3-tert-Butyl-1-p-tolyl-1H-pyrazol-5-yl)ureido)naphthalen-1-yloxy)methyl)pyridin-2-yl)-2-methyl-2-(methylamino)propanamide] |  | − (− <30%) | + (+ >30% at 10 ug/ml) | < 5000 nM | < 10 nM | < 10 nM | < 500 nM |  | 
CN[C@@H](C)C(=O)Nc1cc(COc2ccc(NC(=O)Nc3cc(C(C)(C)C)nn3-c3ccc(C)cc3)c3ccccc23)ccn1 [Example 9, (S)-N-(4-((4-(3-(3-tert-Butyl-1-p-tolyl-1H-pyrazol-5-yl)ureido)naphthalen-1-yloxy)methyl)pyridin-2-yl)-2-(methylamino)propanamide] |  | − (− <30%) | + (+ >30% at 10 ug/ml) | < 500 nM | < 10 nM | < 10 nM | < 10 nM |  | 
Cc1ccc(-n2nc(C(C)(C)C)cc2NC(=O)Nc2ccc(OCc3ccnc(NC(=O)[C@H]4COCCN4)c3)c3ccccc23)cc1 [Example 10, (R)-N-(4-((4-(3-(3-tert-Butyl-1-p-tolyl-1H-pyrazol-5-yl)ureido)naphthalen-1-yloxy)methyl)pyridin-2-yl)morpholine-3-carboxamide] |  | − (− <30%) | − (− <30%) | < 5000 nM | < 10 nM | < 10 nM | < 500 nM |  | 
Cc1ccc(-n2nc(C(C)(C)C)cc2NC(=O)Nc2ccc(OCc3ccnc(NC(=O)[C@@H]4COCCN4)c3)c3ccccc23)cc1 [Example 11, (S)-N-(4-((4-(3-(3-tert-Butyl-1-p-tolyl-1H-pyrazol-5-yl)ureido)naphthalen-1-yloxy)methyl)pyridin-2-yl)morpholine-3-carboxamide] |  | − (− <30%) | − (− <30%) | < 5000 nM | < 10 nM | < 10 nM | < 10 nM |  | 
Cc1ccc(-n2nc(C(C)(C)C)cc2NC(=O)Nc2ccc(OCc3ccnc(NC(=O)N4CCN(C)CC4)c3)c3ccccc23)cc1 [Example 12, N-(4-((4-(3-(3-tert-Butyl-1-p-tolyl-1H-pyrazol-5-yl)ureido)naphthalen-1-yloxy)methyl)pyridin-2-yl)-4-methylpiperazine-1-carboxamide] |  | − (− <30%) | − (− <30%) | < 500 nM |  |  | < 10 nM | < 10 nM | < 10 nM
Cc1ccc(-n2nc(C(C)(C)C)cc2NC(=O)Nc2ccc(OCc3ccnc(NC(=O)N4CCOCC4)c3)c3ccccc23)cc1 [Example 13, N-(4-((4-(3-(3-tert-Butyl-1-p-tolyl-1H-pyrazol-5-yl)ureido)naphthalen-1-yloxy)methyl)pyridin-2-yl)morpholine-4-carboxamide] |  | − (− <30%) | − (− <30%) | < 500 nM | < 10 nM | < 500 nM | < 10 nM |  | 
COCCNC(=O)CNC(=O)Nc1cc(COc2ccc(NC(=O)Nc3cc(C(C)(C)C)nn3-c3ccc(C)cc3)c3ccccc23)ccn1 [Example 15, 2-(3-(4-((4-(3-(3-tert-Butyl-1-p-tolyl-1H-pyrazol-5-yl)ureido)naphthalen-1-yloxy)methyl)pyridin-2-yl)ureido)-N-(2-methoxyethyl)acetamide] |  | − (− <30%) | − (− <30%) | < 500 nM | < 500 nM | < 10 nM |  |  | 
COCCNCC(=O)Nc1cc(COc2ccc(NC(=O)Nc3cc(C(C)(C)C)nn3-c3ccc(C)cc3)c3ccccc23)ccn1 [Example 25, N-(4-((4-(3-(3-tert-Butyl-1-p-tolyl-1H-pyrazol-5-yl)ureido)naphthalen-1-yloxy)methyl)pyridin-2-yl)-2-(2-methoxyethylamino)acetamide] |  | − (− <30%) | − (− <30%) | < 500 nM | < 10 nM | < 10 nM |  |  | 
CNC(=O)Nc1cnccc1COc1ccc(NC(=O)Nc2cc(C(C)(C)C)nn2-c2ccc(C)cc2)c2ccccc12 [Example 34, 1-(4-((3-Methylureidopyridin-4-yl)methoxy)naphthalen-1-yl)-3-(3-tert-butyl-1-p-tolyl-1H-pyrazol-5-yl)urea] |  | + (+ >30% at 10 ug/ml) | − (− <30%) | < 5000 nM | < 500 nM | < 500 nM |  |  | 
COCC(=O)Nc1cnccc1COc1ccc(NC(=O)Nc2cc(C(C)(C)C)nn2-c2ccc(C)cc2)c2ccccc12 [Example 35, N-(4-((4-(3-(3-tert-Butyl-1-p-tolyl-1H-pyrazol-5-yl)ureido)naphthalen-1-yloxy)methyl)pyridin-3-yl)-2-methoxyacetamide] |  | − (− <30%) | − (− <30%) | > 5000 nM |  |  |  |  | 
COCCOCC(=O)Nc1cnccc1COc1ccc(NC(=O)Nc2cc(C(C)(C)C)nn2-c2ccc(C)cc2)c2ccccc12 [Example 36, N-(4-((4-(3-(3-tert-Butyl-1-p-tolyl-1H-pyrazol-5-yl)ureido)naphthalen-1-yloxy)methyl)pyridin-3-yl)-2-(2-methoxyethoxy)acetamide] |  | − (− <30%) | − (− <30%) | > 5000 nM |  |  |  | < 10 nM | < 500 nM
Cc1ccc(-n2nc(C(C)(C)C)cc2NC(=O)Nc2ccc(Oc3ccnc(NC(=O)CS(C)(=O)=O)c3)c3ccccc23)cc1 [Example 51, N-(4-(4-(3-(3-tert-Butyl-1-p-tolyl-1H-pyrazol-5-yl)ureido)naphthalen-1-yloxy)pyridin-2-yl)-2-(methylsulfonyl)acetamide] |  | − (− <30%) | + (+ >30% at 10 ug/ml) |  |  |  |  | < 10 nM | < 10 nM
